According to US20050014762A1, “Combination” (priority 2001, published 2005):
Where “and” joins values, the source holds several entries; their conditions need not be identical. Identical values can stand only once. Like-named read-outs stand apart in the source and are kept apart here.

Tested on: SRS-A-mediated bronchoconstriction after ovalbumin (OVA) challenge in guinea pigs
Assay: SRS-A-mediated (OVA-induced) bronchoconstriction in anaesthetized, mechanically ventilated sensitized guinea pigs
Type: in vivo, guinea pig
Conditions: Cavia porcellus
Experimental: Male Dunkin Hartley guinea pigs; body weight 200-250 g at sensitization and 350-500 g when performing the experiments. Ovalbumin (OVA) was used as allergen for active sensitization. Therefore, 20 μg OVA together with 20 mg Al(OH)3 suspended in 0.5 ml 0.9% NaCl-solution (=saline) were administered i.p. to each animal on 2 consecutive days. […] Controls received the drug-free methocel-solution 1 h before OVA-challenge as placebo (n=12). OVA-challenge and lung function measurements were performed in anaesthetized and mechanically ventilated animals. […] To enhance the SRS-A-mediated bronchoconstriction, the animals were pretreated with: indomethacin 10 mg/kg i.v. 20 min before OVA-challenge to block the cyclooxygenase pathway and to enhance the production of lipoxygenase-mediators, mainly leukotrienes. […] The time-effect curve for the delta-%-decrease of compliance and conductance was determined up to 12 min post challenge. Blood pressure and heart rate were monitored to control vitality. The area under the time-delta-%-decrease curves (AUC) was determined for each animal. On basis of the AUC-values, the inhibition of the SRS-A-induced decrease of compliance and conductance was calculated in reference to placebo. […] Measured and calculated ED50-values were compared by an unpaired t-test for statistical significant differences.

O=C(Nc1c(Cl)cncc1Cl)c1ccc(OC(F)F)c(OCC2CC2)c1 [ROFLUMILAST, 3-cyclopropylmethoxy-4-difluoromethoxy-N-(3,5-dichloropyrid-4-yl)-benzamide]
ED50 (read-out: ED50, inhibition of decrease of airway compliance): 0.58 mg/kg and 1.45 µmol/kg | ED50 (read-out: ED50, inhibition of decrease of airway conductance): 0.69 mg/kg and 1.73 µmol/kg
